Literature values as cited in patent US20070197544A1, “ILOPROST IN COMBINATION THERAPIES FOR THE TREATMENT OF PULMONARY ARTERIAL HYPERTENSION” (CoTherix, Inc., priority 2003, published 2007).
Where a name gives a salt, the structure may show the parent alone. Read-outs that look alike come from different tables or passages of the source.

How the values were obtained:
[1] = oral, at 3 and 6 months
[2] = at least one year of treatment
[3] = 20 mg, 12-week period
[4] = versus placebo, severe PAH
[5] = long-term use of aerosolized iloprost, severe pulmonary hypertension
[6] = not given; remark: listed apart in the source
[7] = administered by aerosolization, patients with pulmonary hypertension
[8] = continuous infusion, severe pulmonary hypertension
[9] = open pilot study

For `CC#CCC(C)[C@H](O)/C=C/[C@@H]1[C@H]2c3cccc(CCCC(=O)O)c3O[C@H]2C[C@H]1O` (mixture of isomers) [Beraprost], the “benefit in PAH” value [1] is listed as “shown a benefit”.
For `CN1CC(=O)N2[C@H](c3ccc4c(c3)OCO4)c3[nH]c4ccccc4c3C[C@@H]2C1=O` [Cialis, Tadalafil], the “most commonly reported treatment-emergent adverse effects” value ([2]; 10 mg or 20 mg) is given as “headache and upset stomach”, the “discontinuation rate for any individual adverse event” value [2] is given as “less than 1%” and the “patients who discontinued the study due to side effects” value [2] is given as “Five”. The “most commonly reported (greater than or equal to 5 percent) treatment-emergent adverse effects” value [3] was “headache, back pain, and upset stomach” and the “patients who discontinued the study because of adverse events” value [3] was 5%.
For `CC#CCC(C)[C@H](O)/C=C/[C@@H]1[C@H]2C/C(=C/CCCC(=O)O)C[C@H]2C[C@H]1O` (stereo partly shown) [Iloprost], the exercise capacity [4] is given as “improved exercise capacity” and the clinical improvement [5] is given as “substantial clinical improvement”.
In the case of `CCCc1nc(C)c2c(=O)[nH]c(-c3cc(S(=O)(=O)N4CCN(CC)CC4)ccc3OCC)nn12` [Levitra, vardenafil HCl], the “most commonly reported side effects” value (in vivo) is given as “headache, flushing, and stuffy or runny nose” and the erectile function (phase III clinical studies) is given as “Helped men get and keep an erection sufficient for satisfactory sexual performance”.
For `COc1ccccc1Oc1c(NS(=O)(=O)c2ccc(C(C)(C)C)cc2)nc(-c2ncccn2)nc1OCCO` [bosentan], the liver toxicity ([6]; higher dose) is given as “liver toxicity occurred” and the “six minute walk test” value ([6]; whole group, improvement greater at higher doses) is given as “improved”.
For `CCCCC[C@H](O)/C=C/[C@@H]1[C@H]2C/C(=C/CCCC(=O)O)O[C@H]2C[C@H]1O` [prostacyclin], the “duration of effects (pulmonary vasodilatation)” value [7] is given as 15 min and the mortality [8] is given as “reduce mortality”.
In the case of `Cc1cc2c(cc1CC(=O)c1sccc1S(=O)(=O)Nc1onc(C)c1Cl)OCO2` [sitaxsentan], the “decrease in pulmonary vascular resistance” value [9] is given as 30% and the “six minute walk test” value [9] is given as “improvement”.
